Measured values as given in patent US9951389B2, “Diagnostic markers for treating cell proliferative disorders with telomerase inhibitors” (Geron Corporation, priority 2012, dated 2018).
Read-outs that look alike come from different tables or passages of the source. [nps] = N3'→P5' thiophosphoramidate linkage

Tests used:
[1] = system: advanced stage non-small cell lung cancer; assay: Imetelstat NSC Lung Cancer Phase II (CP14B-012) Study, progression-free survival analysis by tumor telomere length subgroup; type: in vivo, human; conditions: for responsiveness (progression-free survival) of patients with short telomeres vs medium-long telomeres: telomere length subgroups by qPCR
From the text: The purpose of the NSC Phase II (CP14B-012) Study was to evaluate the efficacy and safety of imetelstat (GRN163L) as maintenance therapy for patients with advanced stage non-small cell lung cancer who have not progressed after 4 cycles of platinum based therapy. Participants were randomized in a 2:1 ratio to imetelstat plus standard of care versus standard of care alone. Participants who received bevacizumab with their induction chemotherapy continued to receive bevacizumab in this study.
The primary outcome measures were progression-free survival, defined as the time from randomization to documented disease progression or death, whichever occurred earlier, as determined by the investigator's assessment according to RECIST (Response Evaluation Criteria in Solid Tumors). The secondary outcome measures were objective response, time to all-cause mortality, and safety and tolerability (assessed by the incidence, nature, and severity of adverse events, laboratory abnormalities, and vital signs.
The patients were divided into two arms. In the experimental arm, patients received Imetelstat plus the standard of care (Bevacizumab or observation). Specifically, 9.4 mg/kg of Imetelstat (GRN163L) was given to patients over a 2 hour IV infusion on Day 1 and Day 8 of each 21 day cycle until disease progression. If administered, Bevacizumab was given on Day 1 of each 21-day cycle, with dosage and duration according to the FDA-approved Bevacizumab package insert.
In the control arm, patients received Bevacizumab or observation. If administered, Bevacizumab was given on Day 1 of each 21-day cycle, with dosage and duration according to the FDA-approved Bevacizumab package insert.
Samples were obtained from 61 of the 116 patients enrolled in the NSC Phase II (CP14B-012) Study described above. […] Each assay produced data for between 7 and 14545 foci from six regions (‘fields’) on a slide. The area and fluorescent intensity were recorded for each of the foci.
The IN Cell developer Toolbox 1.9 (GE Corp.) was utilized to quantitate the average telomere length from cells obtained from biological samples and subjected to telo-FISH. This software was used to draw lines around cell nuclei based on the location of the DAPI stain, and around cell telomeres based on the location of the telomere-specific fluorescence. Once each nucleus and telomere was encircled, the software calculated the intensity and the area of each individual telomere in the cells and determined the average telomere length for the cells derived from the biological sample according to Equation 1: 1.376×log2(intensity)−6.215×√(area) [Equation 1]. Results
This Example followed all of the procedures of Example 2 with the following changes to the qPCR protocol.

[2] = system: epidermoid carcinoma, breast epithelium, renal carcinoma, renal adenocarcinoma, pancreatic, brain, colon, prostate, leukemia, lymphoma, myeloma, epidermal …; conditions: administered alone, in vitro; cited from earlier work
[3] = system: animal tumor models, including ovarian and lung, both small cell and non-small cell; conditions: cited from earlier work

| Substance | progression-free survival hazard ratio (95% CI) [1] | progression-free survival hazard ratio (95% CI) ([1]; Telo-FISH quartile split, small intensity/area (15/59, 25.4%), Example 3, Imetelstat vs control) | progression-free survival median (95% CI) ([1]; Telo-FISH quartile split, small intensity/area (15/59, 25.4%, shortest telomeres), Example 3, Imetelstat arm) | progression-free survival median (95% CI) ([1]; medium-long telomere subgroup (34 of 52 samples, 65%), second qPCR protocol of Example 4, Imetelstat arm) | progression-free survival median (95% CI) ([1]; medium-long telomere subgroup (38 of 57 samples, 67%), qPCR of Example 2, Imetelstat arm) | progression-free survival hazard ratio (95% CI) ([1]; medium-long telomere subgroup (65%), second qPCR protocol of Example 4, Imetelstat vs control) | progression-free survival events/N ([1]; medium-long telomere subgroup (67%), qPCR of Example 2, Imetelstat arm) | progression-free survival median (95% CI) ([1]; short telomere subgroup (18 of 52 samples, 35%), second qPCR protocol of Example 4, Imetelstat arm) | progression-free survival median (95% CI) ([1]; short telomere subgroup (19 of 57 samples, 33%), qPCR of Example 2, Imetelstat 9.4 mg/kg IV Day 1 and 8 of 21 day cycle plus standard of care) | progression-free survival events/N ([1]; short telomere subgroup (33%), qPCR of Example 2, Imetelstat arm) | progression-free survival hazard ratio (95% CI) ([1]; short telomere subgroup (33%), qPCR of Example 2, Imetelstat vs control arm) | progression-free survival hazard ratio (95% CI) ([1]; short telomere subgroup (35%), second qPCR protocol of Example 4, Imetelstat vs control) | responsiveness (progression-free survival) of patients with short telomeres vs medium-long telomeres ([1]; Example 2) | responsiveness (progression-free survival) of patients with short telomeres vs medium-long telomeres ([1]; Example 4) | inhibitory activity in cell culture [2] | therapeutic efficacy in animal tumor models [3] |
| --- | --- | --- | --- | --- | --- | --- | --- | --- | --- | --- | --- | --- | --- | --- | --- | --- |
| Imetelstat | 0.83 (0.36, 1.89) | 0.26 (0.06, 1.1) | 4.7 (1.41, NA) | 3.03 (1.58, 4.47) | 2.8 (1.51, 4.18) | 0.65 (0.27, 1.56) | 21/26 | 1.91 (1.22, NA) | 4.05 (1.25, NA) | 8/11 | 0.32 (0.1, 1.02) | 0.55 (0.17, 1.84) | significantly more responsive compared to controls | significantly more responsive compared to controls |  |  |
| GRN163: oligonucleotide having sequence TAGGGTTAGACAA (SEQ ID NO:3) and N3′→P5′ thiophosphoramidate (NPS) linkages (all [nps], sugars by position and methylation of C not given here) |  |  |  |  |  |  |  |  |  |  |  |  |  |  | has shown inhibitory activity | therapeutically effective |
